Values quoted from earlier work, collected in patent US20240299430A1, “METHODS AND COMPOSITIONS FOR TREATING LONG COVID-19” (Intrinsic Medicine, Inc., priority 2021, published 2024).

Key:
[1] = tested on: mouse models of rheumatoid arthritis; details: administered orally, LPS challenge
[2] = tested on: murine and human derived macrophages stimulated with LPS and various pro-inflammatory cytokines; details: in vitro
[3] = tested on: PDL1, COX2 and select chemokines, such as CCL2 (MCP1) and CCL5

Compound	clinical assessments of disease [1]	effect on IL-1β, IL-2, IL-4, IL-6, IL-12, IFN γ or TNF-α [2]	effect on PDL1, COX2 and chemokines CCL2 (MCP1) and CCL5 [3]	extent of cytokine reduction, 3′-SL compared with 6′SL [2]
sialyllactose	benefit in clinical assessments of disease			
CC(=O)N[C@H]1[C@H]([C@H](O)[C@H](O)CO)O[C@@](OC[C@H]2O[C@@H](O[C@H]3[C@H](O)[C@@H](O)[C@H](O)O[C@@H]3CO)[C@H](O)[C@@H](O)[C@H]2O)(C(=O)O)C[C@@H]1O [6′SL, 6′-sialyllactose]		reductions		
CC(=O)N[C@H]1C([C@H](O)[C@H](O)CO)O[C@@](O[C@@H]2C(O)[C@H](O[C@@H]3C(CO)O[C@@H](O)C(O)[C@H]3O)OC(CO)[C@@H]2O)(C(=O)O)C[C@H]1O (some centres unmarked) [3′SL, 3′-sialyllactose]		reductions	reduce	more significant reductions
